According to patent publication US20220395487A1, “RIG-I INNATE IMMUNE RECEPTOR ANTAGONISTS AND METHODS OF USING SAME” (YALE UNIVERSITY, priority 2019, published 2022):

Target: T1, RIG-I (Homo sapiens, UniProt O95786)
T1 sequence (O95786 1-925): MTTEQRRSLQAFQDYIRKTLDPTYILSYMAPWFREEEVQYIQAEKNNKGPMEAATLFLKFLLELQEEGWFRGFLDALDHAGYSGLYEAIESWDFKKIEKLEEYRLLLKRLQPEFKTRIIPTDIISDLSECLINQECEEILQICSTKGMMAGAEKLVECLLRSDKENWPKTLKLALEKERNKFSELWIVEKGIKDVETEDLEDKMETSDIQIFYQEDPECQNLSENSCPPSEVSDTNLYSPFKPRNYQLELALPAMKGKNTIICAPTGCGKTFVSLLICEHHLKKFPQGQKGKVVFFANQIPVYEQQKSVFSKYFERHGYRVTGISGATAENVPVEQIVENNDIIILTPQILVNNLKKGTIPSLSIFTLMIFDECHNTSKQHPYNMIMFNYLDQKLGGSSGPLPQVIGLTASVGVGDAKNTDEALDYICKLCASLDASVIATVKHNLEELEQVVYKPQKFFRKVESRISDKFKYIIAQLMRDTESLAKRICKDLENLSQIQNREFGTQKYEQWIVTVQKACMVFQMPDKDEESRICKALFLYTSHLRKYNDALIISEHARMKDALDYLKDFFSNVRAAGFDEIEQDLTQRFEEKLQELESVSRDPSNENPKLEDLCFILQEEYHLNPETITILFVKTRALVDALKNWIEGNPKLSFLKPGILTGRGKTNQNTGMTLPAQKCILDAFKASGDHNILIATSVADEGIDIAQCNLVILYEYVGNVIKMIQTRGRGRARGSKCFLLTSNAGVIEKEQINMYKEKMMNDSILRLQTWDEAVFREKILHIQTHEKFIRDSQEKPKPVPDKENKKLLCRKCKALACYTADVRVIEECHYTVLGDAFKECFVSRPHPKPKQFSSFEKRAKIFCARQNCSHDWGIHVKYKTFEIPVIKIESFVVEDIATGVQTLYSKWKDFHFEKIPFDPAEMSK
Assay: IFN-β/Firefly dual-luciferase reporter assay in HEK 293T cells transfected with hRIG-I
Type: cell-based
Conditions: HEK293T cells, SLR14 challenge
Description: Two different assays were used for evaluating RIG-I inhibition in cells. In the first assay, HEK 293T cells were used to test the influence of compounds on RIG-I signaling activity while simultaneously reporting on relative toxicity. In this case, inhibitor compounds were introduced via growth media replacement rather than by direct addition to cell plates. Specifically, HEK 293T cells (which express RIG-I only under the control of a transfected plasmid) were grown and maintained in T75 flasks containing Dulbecco's Modified Eagle Medium, DMEM (Life Technologies) supplemented with 10% heat-inactivated fetal bovine serum (Hyclone) and non-essential amino acids (Life Technologies). For the IFN-β induction assays, 0.5 ml of cells at 65,000 cells/ml was placed (seeded) in 24-well plates. After 24 h, each well of cells was transfected with 5 ng WT pUNO-hRIG-I (Invivogen), 6 ng pRL-TK constitutive Renilla luciferase reporter plasmid (Promega) and 150 ng of an IFN-β/Firefly luciferase reporter plasmid using the Lipofectamine 2000 transfection reagent (Life Technologies) following the manufacturer's protocol. Protein expression was allowed to proceed for 24 hours. In parallel, a six-point dilution series of each compound of interest was made in a DMSO vehicle and then diluted further into DMEM such that a constant DMSO concentration of 1% is maintained over the entire drug dilution. The DMEM growth media was aspirated from each well of cells and replaced with DMEM that contains the drug. After 30 minutes, the cells were challenged by transfection with 1 μg of the synthetic stem-loop RNA (SLR14) in Lipofectamine 2000. After 5-6 hours, cells were harvested for luminescence analysis in the following manner: Growth media was aspirated from each well, and 100 μl of passive lysis buffer (Promega) was added. Lysis proceeded for 15 min at room temperature. Lysates were clarified by centrifugation, and 20 μl samples of the supernatant were transferred to a 96-well assay plate for analysis using the Dual-Luciferase Reporter Assay System (Promega). Luminescence was measured using a Biotek Synergy H1 plate reader. The resulting Firefly luciferase activity (i.e. the induction of IFN-0) was normalized to the activity of the constitutively expressed Renilla luciferase to account for differences in confluency, transfection efficiency and cell viability across sample wells.

- IC50 (compound in growth medium, read-out: IC50, inhibition of RIG-I signaling (IFN induction luciferase)): 1250 nM
Structure (SMILES): CCC1(CC)C(=O)N=C2C1=C(OCc1ccccc1)C(=O)c1ccccc12 [RIG012, 4-Benzyloxy-3,3-diethyl-2H,3H,5H-benzo[g]indole-2,5-dione]
- inhibition of RIG-I signaling / IFN induction, result in words: potent, dose-dependent inhibition of RIG-I signaling
